Results on five compounds are retold here after patent US10231954B2, “Neurodegenerative therapies” (LYTIX BIOPHARMA AS, priority 2014, dated 2019).

What all share (type): biochemical
One assay deals with MPSK1 (Homo sapiens, UniProt O75716). Description: Kinase profiling MPSK1. The following applies: read-out: residual kinase activity, MPSK1. The text has this: (§1) Any value less that 25 is considered to be highly significant inhibition.
A further assay concerns the target MAPKAP-K3 (Homo sapiens, UniProt Q16644). In words: Kinase profiling MAPKAP-K3. The following applies: read-out: residual kinase activity, MAPKAP-K3.
From the text: as §1

The next assay concerns the target T1, CHK1 (Homo sapiens, UniProt O14757).
T1 sequence (O14757 1-476): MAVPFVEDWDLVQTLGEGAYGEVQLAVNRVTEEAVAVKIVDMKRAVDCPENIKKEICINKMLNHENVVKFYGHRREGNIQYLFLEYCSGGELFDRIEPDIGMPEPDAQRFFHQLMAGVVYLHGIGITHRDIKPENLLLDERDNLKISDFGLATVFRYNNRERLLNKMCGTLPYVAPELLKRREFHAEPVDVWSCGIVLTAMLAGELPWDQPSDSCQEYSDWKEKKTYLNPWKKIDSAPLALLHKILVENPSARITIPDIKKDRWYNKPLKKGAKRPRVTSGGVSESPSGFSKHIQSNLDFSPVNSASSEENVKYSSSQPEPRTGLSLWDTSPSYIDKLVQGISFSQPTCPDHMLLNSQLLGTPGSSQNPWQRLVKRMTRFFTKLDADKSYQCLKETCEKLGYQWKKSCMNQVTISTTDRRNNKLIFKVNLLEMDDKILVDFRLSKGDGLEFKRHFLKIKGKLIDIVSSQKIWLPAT
In words: Kinase profiling CHK1. Conditions: read-out: residual kinase activity, CHK1.
From the text: as §1

A further assay has as its target IRAK1 (Homo sapiens, UniProt P51617). Description: Kinase profiling IRAK1. Conditions: read-out: residual kinase activity, IRAK1.
From the text: as §1

The test system of a further assay is PHK. Description: Kinase profiling PHK.
From the text: as §1

The next assay deals with TIE2 (Homo sapiens, UniProt Q02763). Description: Kinase profiling TIE2. Conditions: read-out: residual kinase activity, TIE2.
From the text: as §1

The next assay addresses T2, PRAK (Homo sapiens, UniProt Q8IW41).
T2 sequence (Q8IW41 1-473): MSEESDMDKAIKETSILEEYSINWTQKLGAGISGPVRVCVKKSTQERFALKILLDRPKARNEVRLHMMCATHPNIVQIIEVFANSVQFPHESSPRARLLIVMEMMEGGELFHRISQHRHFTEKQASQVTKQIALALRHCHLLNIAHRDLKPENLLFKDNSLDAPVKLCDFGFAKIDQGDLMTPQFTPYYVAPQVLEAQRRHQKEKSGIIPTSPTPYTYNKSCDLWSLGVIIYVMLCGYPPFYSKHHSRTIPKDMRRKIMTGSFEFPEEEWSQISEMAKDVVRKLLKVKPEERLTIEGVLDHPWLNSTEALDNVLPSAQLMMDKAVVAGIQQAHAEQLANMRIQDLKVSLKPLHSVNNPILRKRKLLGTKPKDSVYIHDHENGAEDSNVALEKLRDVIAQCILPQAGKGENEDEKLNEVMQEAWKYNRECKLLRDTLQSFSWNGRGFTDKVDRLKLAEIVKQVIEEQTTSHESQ
Description: Kinase profiling PRAK. Conditions: read-out: residual kinase activity, PRAK.
From the text: as §1

The target of the next assay is MNK1 (Homo sapiens, UniProt Q9BUB5). Description: Kinase profiling MNK1. The following applies: read-out: residual kinase activity, MNK1.
From the text: as §1

The next assay concerns the target CDK9-Cyclin T1 (Homo sapiens, UniProt P50750). In words: Kinase profiling CDK9-Cyclin T1. The following applies: read-out: residual kinase activity, CDK9-Cyclin T1.
From the text: as §1

In the next assay the target is TESK1 (Homo sapiens, UniProt Q15569). In words: Kinase profiling TESK1. Conditions: read-out: residual kinase activity, TESK1.
From the text: as §1

The next assay addresses T3, Aurora A (Homo sapiens, UniProt O14965).
T3 sequence (O14965 1-403): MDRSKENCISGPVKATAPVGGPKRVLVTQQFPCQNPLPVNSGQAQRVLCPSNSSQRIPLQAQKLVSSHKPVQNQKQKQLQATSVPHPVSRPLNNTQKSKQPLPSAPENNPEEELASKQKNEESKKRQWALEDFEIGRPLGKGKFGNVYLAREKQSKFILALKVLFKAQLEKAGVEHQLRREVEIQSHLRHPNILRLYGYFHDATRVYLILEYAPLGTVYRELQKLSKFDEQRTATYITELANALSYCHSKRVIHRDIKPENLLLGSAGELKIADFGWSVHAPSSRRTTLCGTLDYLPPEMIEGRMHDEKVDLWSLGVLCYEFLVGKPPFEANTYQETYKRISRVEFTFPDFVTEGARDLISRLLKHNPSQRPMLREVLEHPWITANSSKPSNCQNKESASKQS
In words: Kinase profiling Aurora A. Conditions: read-out: residual kinase activity, Aurora A.
From the text: as §1

The target in a further assay is T4, ULK1 (Homo sapiens, UniProt O75385).
T4 sequence (O75385 1-1050): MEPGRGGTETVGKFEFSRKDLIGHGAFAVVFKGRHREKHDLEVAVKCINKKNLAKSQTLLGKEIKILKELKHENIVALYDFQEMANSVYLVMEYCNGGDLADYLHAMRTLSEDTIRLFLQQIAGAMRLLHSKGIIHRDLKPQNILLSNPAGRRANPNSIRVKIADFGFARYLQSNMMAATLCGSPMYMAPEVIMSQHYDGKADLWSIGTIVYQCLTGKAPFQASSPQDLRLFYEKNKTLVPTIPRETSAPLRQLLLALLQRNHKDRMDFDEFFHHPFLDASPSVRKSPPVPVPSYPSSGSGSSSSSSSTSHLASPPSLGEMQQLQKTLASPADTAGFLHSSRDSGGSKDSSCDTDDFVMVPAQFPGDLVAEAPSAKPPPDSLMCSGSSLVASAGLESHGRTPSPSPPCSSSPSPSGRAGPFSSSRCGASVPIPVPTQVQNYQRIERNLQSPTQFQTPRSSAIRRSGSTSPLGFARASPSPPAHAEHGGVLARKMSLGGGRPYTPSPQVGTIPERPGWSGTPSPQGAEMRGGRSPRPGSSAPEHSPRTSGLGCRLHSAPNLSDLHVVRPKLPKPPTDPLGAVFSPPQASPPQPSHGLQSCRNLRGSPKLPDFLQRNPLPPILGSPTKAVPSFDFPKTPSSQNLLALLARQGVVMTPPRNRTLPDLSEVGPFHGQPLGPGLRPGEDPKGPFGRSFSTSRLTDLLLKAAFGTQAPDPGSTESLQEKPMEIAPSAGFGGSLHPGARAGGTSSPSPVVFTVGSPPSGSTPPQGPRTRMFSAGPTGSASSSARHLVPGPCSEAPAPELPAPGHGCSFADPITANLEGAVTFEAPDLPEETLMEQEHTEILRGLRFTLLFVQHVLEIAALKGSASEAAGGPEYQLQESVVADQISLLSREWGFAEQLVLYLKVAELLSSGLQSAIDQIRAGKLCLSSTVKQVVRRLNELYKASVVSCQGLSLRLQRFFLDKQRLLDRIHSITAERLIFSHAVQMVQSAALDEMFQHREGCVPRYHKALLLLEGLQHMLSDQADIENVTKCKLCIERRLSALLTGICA
In words: Kinase profiling ULK1. Conditions: read-out: residual kinase activity, ULK1.
From the text: as §1

Where [1] appears, read: 100 micromolar inhibitor concentration, 100 is no change.
Setting [2] is: 100 micromolar inhibitor, 100 = no change.

Like-named read-outs stand apart in the source and are kept apart here.

Sequence of MPSK1 (O75716 whole entry, species assumed): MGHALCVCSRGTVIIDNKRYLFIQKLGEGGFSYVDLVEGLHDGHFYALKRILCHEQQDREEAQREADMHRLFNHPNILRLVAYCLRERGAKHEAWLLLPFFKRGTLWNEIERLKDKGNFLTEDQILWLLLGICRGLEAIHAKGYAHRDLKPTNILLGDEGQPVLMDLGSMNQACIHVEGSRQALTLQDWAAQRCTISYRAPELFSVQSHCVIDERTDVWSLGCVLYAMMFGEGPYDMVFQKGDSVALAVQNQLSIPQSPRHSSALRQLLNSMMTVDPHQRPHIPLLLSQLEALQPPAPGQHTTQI
Sequence of TESK1 (Q15569 whole entry, species assumed): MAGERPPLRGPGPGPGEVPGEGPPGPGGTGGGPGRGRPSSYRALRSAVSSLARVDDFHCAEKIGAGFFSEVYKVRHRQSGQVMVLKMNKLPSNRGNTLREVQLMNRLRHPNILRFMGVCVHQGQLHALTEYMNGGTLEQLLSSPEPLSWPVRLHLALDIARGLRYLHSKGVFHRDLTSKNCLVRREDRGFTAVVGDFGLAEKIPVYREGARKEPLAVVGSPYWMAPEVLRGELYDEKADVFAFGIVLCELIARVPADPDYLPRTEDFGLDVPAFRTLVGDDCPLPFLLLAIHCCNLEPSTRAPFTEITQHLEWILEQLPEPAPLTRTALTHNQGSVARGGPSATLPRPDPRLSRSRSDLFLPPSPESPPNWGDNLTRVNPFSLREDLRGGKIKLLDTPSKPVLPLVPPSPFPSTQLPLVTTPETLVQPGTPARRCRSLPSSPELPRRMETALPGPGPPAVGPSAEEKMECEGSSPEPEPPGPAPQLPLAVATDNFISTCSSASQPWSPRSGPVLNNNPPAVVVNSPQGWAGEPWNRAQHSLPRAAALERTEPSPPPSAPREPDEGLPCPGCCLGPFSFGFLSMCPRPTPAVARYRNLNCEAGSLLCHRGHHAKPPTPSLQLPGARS
Sequence of MNK1 (Q9BUB5 whole entry, species assumed): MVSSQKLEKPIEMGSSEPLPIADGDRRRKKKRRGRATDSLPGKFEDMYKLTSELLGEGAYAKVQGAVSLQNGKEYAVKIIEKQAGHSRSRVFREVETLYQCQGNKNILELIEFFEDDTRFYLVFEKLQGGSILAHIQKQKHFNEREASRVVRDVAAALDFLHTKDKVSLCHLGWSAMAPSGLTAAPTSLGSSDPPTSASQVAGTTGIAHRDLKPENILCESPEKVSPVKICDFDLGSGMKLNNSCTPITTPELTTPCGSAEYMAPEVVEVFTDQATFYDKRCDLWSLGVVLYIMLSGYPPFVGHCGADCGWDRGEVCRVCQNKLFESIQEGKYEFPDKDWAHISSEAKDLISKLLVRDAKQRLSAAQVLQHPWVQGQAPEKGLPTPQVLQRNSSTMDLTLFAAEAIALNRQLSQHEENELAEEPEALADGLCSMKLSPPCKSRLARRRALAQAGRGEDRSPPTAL
Sequence of CDK9-Cyclin T1 (P50750 whole entry): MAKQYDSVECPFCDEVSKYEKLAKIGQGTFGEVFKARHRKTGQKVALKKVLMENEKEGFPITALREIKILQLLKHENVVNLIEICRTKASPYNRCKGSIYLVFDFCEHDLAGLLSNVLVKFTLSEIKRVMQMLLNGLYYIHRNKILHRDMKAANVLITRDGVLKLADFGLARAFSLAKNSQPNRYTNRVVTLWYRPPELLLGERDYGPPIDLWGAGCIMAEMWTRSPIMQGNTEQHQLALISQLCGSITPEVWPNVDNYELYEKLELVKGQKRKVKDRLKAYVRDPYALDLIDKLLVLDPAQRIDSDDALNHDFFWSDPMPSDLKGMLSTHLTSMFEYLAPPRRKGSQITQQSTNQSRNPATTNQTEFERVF
Sequence of CDK9-Cyclin T1 (O60563 whole entry partner): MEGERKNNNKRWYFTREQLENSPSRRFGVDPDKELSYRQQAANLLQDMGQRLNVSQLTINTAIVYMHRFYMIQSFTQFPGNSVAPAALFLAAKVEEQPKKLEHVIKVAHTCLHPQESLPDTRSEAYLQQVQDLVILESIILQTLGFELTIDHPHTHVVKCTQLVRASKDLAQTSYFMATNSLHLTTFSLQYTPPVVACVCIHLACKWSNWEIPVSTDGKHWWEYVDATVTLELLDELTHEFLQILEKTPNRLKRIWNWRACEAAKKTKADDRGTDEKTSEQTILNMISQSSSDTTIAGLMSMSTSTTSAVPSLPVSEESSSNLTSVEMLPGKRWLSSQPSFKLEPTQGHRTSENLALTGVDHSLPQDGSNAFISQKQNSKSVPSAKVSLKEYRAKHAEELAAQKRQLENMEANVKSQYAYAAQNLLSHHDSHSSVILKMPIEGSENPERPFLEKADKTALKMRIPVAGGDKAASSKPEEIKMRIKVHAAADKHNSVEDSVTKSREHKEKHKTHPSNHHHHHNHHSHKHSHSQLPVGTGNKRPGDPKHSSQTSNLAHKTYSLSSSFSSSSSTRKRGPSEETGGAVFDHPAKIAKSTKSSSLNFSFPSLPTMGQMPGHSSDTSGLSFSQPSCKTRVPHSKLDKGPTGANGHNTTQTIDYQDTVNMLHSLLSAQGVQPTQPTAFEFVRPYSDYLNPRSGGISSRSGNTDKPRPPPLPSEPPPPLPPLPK
Sequence of TIE2 (Q02763 23-1124, species assumed): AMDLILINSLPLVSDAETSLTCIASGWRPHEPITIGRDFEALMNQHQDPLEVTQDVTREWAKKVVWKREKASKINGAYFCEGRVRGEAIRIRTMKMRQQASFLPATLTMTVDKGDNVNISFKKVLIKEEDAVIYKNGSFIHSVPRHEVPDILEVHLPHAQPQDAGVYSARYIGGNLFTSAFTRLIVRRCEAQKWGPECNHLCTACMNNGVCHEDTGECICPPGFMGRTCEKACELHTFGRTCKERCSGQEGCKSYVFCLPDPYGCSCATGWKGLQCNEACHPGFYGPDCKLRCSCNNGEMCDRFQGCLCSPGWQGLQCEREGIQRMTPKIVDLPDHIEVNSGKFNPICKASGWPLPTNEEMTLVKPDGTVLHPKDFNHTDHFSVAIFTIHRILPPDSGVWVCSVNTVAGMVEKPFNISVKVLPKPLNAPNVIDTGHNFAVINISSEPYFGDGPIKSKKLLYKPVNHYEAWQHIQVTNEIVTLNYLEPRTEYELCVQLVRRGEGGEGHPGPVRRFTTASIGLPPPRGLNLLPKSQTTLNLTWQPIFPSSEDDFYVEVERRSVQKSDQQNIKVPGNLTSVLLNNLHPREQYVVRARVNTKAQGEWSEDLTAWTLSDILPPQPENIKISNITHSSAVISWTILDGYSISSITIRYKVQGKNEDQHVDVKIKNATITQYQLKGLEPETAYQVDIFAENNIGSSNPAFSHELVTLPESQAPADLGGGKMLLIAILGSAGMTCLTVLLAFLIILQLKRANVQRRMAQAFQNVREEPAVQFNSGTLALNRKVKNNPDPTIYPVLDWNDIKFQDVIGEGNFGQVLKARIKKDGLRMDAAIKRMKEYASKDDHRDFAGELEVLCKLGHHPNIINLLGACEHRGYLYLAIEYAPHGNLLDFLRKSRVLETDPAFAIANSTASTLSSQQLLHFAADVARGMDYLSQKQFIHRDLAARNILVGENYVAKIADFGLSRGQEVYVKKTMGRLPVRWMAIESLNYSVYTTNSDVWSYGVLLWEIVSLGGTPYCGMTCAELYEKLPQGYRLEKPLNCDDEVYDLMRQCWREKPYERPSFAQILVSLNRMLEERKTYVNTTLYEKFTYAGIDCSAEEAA
Sequence of MAPKAP-K3 (Q16644 whole entry, species assumed): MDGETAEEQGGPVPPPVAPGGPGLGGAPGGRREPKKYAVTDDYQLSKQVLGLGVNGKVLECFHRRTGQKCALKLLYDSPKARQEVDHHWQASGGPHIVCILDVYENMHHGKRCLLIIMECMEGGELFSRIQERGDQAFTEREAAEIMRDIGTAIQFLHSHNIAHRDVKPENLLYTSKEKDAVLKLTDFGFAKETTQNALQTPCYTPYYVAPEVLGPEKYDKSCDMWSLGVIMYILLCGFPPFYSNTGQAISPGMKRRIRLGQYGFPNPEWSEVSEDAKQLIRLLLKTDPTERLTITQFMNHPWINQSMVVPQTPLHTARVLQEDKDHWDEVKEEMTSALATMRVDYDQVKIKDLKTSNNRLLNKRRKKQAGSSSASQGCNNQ
Sequence of IRAK1 (P51617 whole entry, species assumed): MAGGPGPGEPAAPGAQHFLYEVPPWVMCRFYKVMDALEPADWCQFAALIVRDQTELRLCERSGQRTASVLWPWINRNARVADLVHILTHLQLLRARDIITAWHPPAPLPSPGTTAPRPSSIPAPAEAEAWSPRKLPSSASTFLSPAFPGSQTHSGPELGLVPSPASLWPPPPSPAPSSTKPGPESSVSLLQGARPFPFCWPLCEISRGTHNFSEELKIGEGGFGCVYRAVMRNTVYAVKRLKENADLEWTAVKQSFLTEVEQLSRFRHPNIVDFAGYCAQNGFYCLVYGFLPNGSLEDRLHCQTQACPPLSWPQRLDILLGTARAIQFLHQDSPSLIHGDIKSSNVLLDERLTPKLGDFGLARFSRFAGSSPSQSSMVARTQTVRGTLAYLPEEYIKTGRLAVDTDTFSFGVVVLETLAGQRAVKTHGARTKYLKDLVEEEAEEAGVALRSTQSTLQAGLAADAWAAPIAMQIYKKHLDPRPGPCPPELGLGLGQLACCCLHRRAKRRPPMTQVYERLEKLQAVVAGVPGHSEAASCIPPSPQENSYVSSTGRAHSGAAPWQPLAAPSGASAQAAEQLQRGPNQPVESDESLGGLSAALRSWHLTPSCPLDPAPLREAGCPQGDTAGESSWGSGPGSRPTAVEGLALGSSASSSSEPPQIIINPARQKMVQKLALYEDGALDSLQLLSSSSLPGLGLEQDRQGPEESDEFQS

Consider `CC(=O)Nc1nc2cc(O)ccc2s1` [Compound 01-66, N-(5-hydroxybenzo[d]thiazol-2-yl)acetamide], for which the remaining activity at 100 µM at MPSK1 was 80%; on MAPKAP-K3, 39%; on CHK1 it was 75%; at IRAK1, 29%; on TIE2, 75%; at PRAK, 58%. For the same compound, the remaining activity at 100 µM stood at 17% at MNK1, 85% at CDK9-Cyclin T1, 94% at TESK1 and 87% on Aurora A. The “residual kinase activity, PHK” value with PHK (setting [1]) was 49.
For `CC(=O)Nc1nc2ccc(O)cc2s1` [Compound 01-71], the remaining activity at 100 µM stood at 77% at MPSK1 (setting [1]); 34% on MAPKAP-K3 (setting [1]); 82% at CHK1 (setting [1]); 26% at IRAK1 (setting [1]); 65% at TIE2 (setting [1]); 47% at PRAK (setting [1]). Further, the remaining activity at 100 µM on MNK1 (setting [1]) was determined as 28%; on CDK9-Cyclin T1 (setting [1]), 48%; at TESK1 (setting [1]), 61%; on Aurora A (setting [1]), 68%. Moreover, the “residual kinase activity, PHK” value in the assay with PHK (setting [1]) is on record as 47.
As to `CC(=O)Nc1nc2ccc(C(F)(F)F)cc2s1` [Compound 01-90], the remaining activity at 100 µM on MPSK1 (setting [1]) came out at 105%; on MAPKAP-K3 (setting [1]), 101%; on CHK1 (setting [1]) it was 97%; on IRAK1 (setting [1]), 43%; on TIE2 (setting [1]), 60%; at PRAK (setting [1]), 111%. For the same compound, the remaining activity at 100 µM on MNK1 (setting [1]) worked out at 65%; at CDK9-Cyclin T1 (setting [1]) it was 26%; on TESK1 (setting [1]) it was 93%; on ULK1 (setting [1]), 87%; at Aurora A (setting [1]) it was 81%. Further, the “residual kinase activity, PHK” value in the assay with PHK (setting [1]) is 52.
Consider `CC(=O)Nc1nc2ccc(C#N)cc2s1` [Compound 01-94], for which the remaining activity at 100 µM at MPSK1 (setting [1]) stood at 94%; at MAPKAP-K3 (setting [1]), 101%; on CHK1 (setting [1]), 96%; on IRAK1 (setting [1]), 11%; at TIE2 (setting [1]), 85%; on PRAK (setting [1]), 69%. Further, the remaining activity at 100 µM at MNK1 (setting [1]) turned out to be 47%; on CDK9-Cyclin T1 (setting [1]) it was 15%; on TESK1 (setting [1]), 90%; at ULK1 (setting [1]), 92%; at Aurora A (setting [1]), 61%. In addition, the “residual kinase activity, PHK” value with PHK (setting [1]) is 63.
Take `CC(=O)Nc1cccc(NC(=O)c2nc3ccc(O)cc3s2)c1` [Compound 03-07, N-(3-acetamidophenyl)-6-hydroxybenzo[d]thiazole-2-carboxamide]: the remaining activity at 100 µM on MPSK1 (setting [2]) stood at 108%; on MAPKAP-K3 (setting [2]) it was 34%; at CHK1 (setting [2]), 113%; at IRAK1 (setting [2]) it was 49%; on TIE2 (setting [2]), 78%; at PRAK (setting [2]), 59%. Further, the remaining activity at 100 µM on MNK1 (setting [2]) came out at 40%; on CDK9-Cyclin T1 (setting [2]), 76%; at TESK1 (setting [2]), 101%; at ULK1 (setting [2]), 70%; on Aurora A (setting [2]) it was 110%. Also, in the assay with PHK (setting [2]), the “residual kinase activity, PHK” value was determined as 55.
